Laboratory results: publication PMC6695839, “Interspecies Variation in NCMN-O-Demethylation in Liver Microsomes from Various Species” (Molecules, 2019)
Several values for one entry are separate records, joined by “and”; a condition that tells them apart may be missing. Identical values can stand only once.

Key:
[1] = test system: cynomolgus monkey liver microsomes (CyLM); assay: Kinetic analysis of NCMN-O-demethylation in cynomolgus monkey liver microsomes; format: in vitro ADME; conditions: biphasic kinetics, substrate 1-150 µM
Protocol: (§1) The formation rates of NCHN were within the linear range of the protein concentration and incubation time. NCMN (1, 2.5, 5, 7.5, 10, 25, 50, 75, 100 and 150 µM) was incubated with HLM, MLM, RLM, DLM, PLM, CyLM (0.25mg protein/mL) as well as rat CYP1A2 (100 nM) for 30min. The apparent Km and Vmax values were determined by fitting the substrate concentrations versus the metabolite reaction velocities to the Michaelis-Menten equation (Equation (1)) and the Biphasic Kinetics equation (Equation (2)), and the results were graphically represented by Eadie-Hofstee plots. (1) v=Vmax[S]/Km+[S] (2) v=Vmax 1[S]/Kmax 1+[S]+Vmax 2[S]/Kmax 2+[S] where v is the rate of the reaction, Vmax is the maximum velocity estimate, Km is the substrate affinity constant, [S] is the substrate concentration.
(§2) The UFLC system consisted of a SIL-20ACHT auto sampler, a DGU-20A3 in-line degasser, a CBM-20A communications bus module, a CTO-20AC column oven, two LC-20AD pumps and an SPD-M20A photodiode array detector were used for analyzing the samples. The separation of NCMN and its metabolites was achieved on a Shim-pack XR-ODS (75 mm × 2.0 mm, 2.2 µm, Shimadzu, Kyoto, Japan) analytical column with an ODS guard column (5 mm × 2.0 mm, 2.2 µm, Shimadzu, Kyoto, Japan). The O-demethylation was quantified at the detector wavelength of 243 nm. […] The column oven was kept at 40 °C.

[2] = Kinetic analysis of NCMN-O-demethylation in mouse liver microsomes; format: in vitro ADME; conditions: mouse, mouse liver microsomes, pH 7.4; MLM; Michaelis-Menten; substrate 1-150 µM; read-out: Km1 (Km) of NCMN-O-demethylation
Protocol: as §1, §2

[3] = test system: mouse liver microsomes (MLM); assay: as above; format: in vitro ADME; conditions: Michaelis-Menten, substrate 1-150 µM
Protocol: as §1, §2

[4] = test system: rat liver microsomes (RLM); assay: Kinetic analysis of NCMN-O-demethylation in rat liver microsomes; format: in vitro ADME; conditions: biphasic kinetics, substrate 1-150 µM
Protocol: as §1, §2

[5] = test system: beagle dog liver microsomes (DLM); assay: Kinetic analysis of NCMN-O-demethylation in beagle dog liver microsomes; format: in vitro ADME; conditions: Michaelis-Menten, substrate 1-150 µM
Protocol: as §1, §2

[6] = as above; format: in vitro ADME; conditions: beagle, dog, beagle dog liver microsomes, pH 7.4; DLM; Michaelis-Menten; substrate 1-150 µM; read-out: Km1 (Km) of NCMN-O-demethylation
Protocol: as §1, §2

[7] = test system: minipig liver microsomes (PLM); assay: Kinetic analysis of NCMN-O-demethylation in minipig liver microsomes; format: in vitro ADME; conditions: biphasic kinetics, substrate 1-150 µM
Protocol: as §1, §2

[8] = Kinetic analysis of NCMN-O-demethylation in human liver microsomes; format: in vitro ADME; conditions: human, human liver microsomes, pH 7.4; HLM; Michaelis-Menten; substrate 1-150 µM; read-out: Km1 (Km) of NCMN-O-demethylation
Protocol: as §1, §2

[9] = test system: human liver microsomes (HLM); assay: as above; format: in vitro ADME; conditions: Michaelis-Menten, substrate 1-150 µM
Protocol: as §1, §2

[10] = test system: CYP1A in cynomolgus monkey liver microsomes (CyLM); assay: Inhibition of NCMN-O-demethylation by CYP inhibitors in cynomolgus monkey liver microsomes; conditions: CyLM; 10 µM NCMN; 100 µM furafylline, 10 µM sulfaphenazole, 200 µM troleandomycin, 500 µM 1-ABT
[11] = test system: CYP1A (NCMN O-demethylation); assay: as above; conditions: cynomolgus monkey, cynomolgus monkey liver microsomes, pH 7.4, probe NCMN (various concentrations; formation of NCHN)
[12] = test system: CYP1A in rat liver microsomes (RLM); assay: Inhibition of NCMN-O-demethylation by CYP inhibitors in rat liver microsomes; conditions: RLM; 10 µM NCMN; 100 µM furafylline, 10 µM sulfaphenazole, 200 µM troleandomycin, 500 µM 1-ABT
[13] = test system: CYP1A (NCMN O-demethylation); assay: as above; conditions: rat, rat liver microsomes, pH 7.4, probe NCMN (various concentrations; formation of NCHN)
[14] = test system: CYP1A (NCMN O-demethylation); assay: Inhibition of NCMN-O-demethylation by CYP inhibitors in minipig liver microsomes; conditions: minipig, pig, minipig liver microsomes, pH 7.4, probe NCMN (various concentrations; formation of NCHN)
[15] = test system: CYP1A in minipig liver microsomes (PLM); assay: as above; conditions: PLM; 10 µM NCMN; 100 µM furafylline, 10 µM sulfaphenazole, 200 µM troleandomycin, 500 µM 1-ABT
[16] = biological target: T1, CYP1A in mouse liver microsomes (MLM) (Mus musculus, UniProt P00186); assay: Inhibition of NCMN-O-demethylation by CYP inhibitors in mouse liver microsomes; conditions: MLM; 10 µM NCMN; 100 µM furafylline, 10 µM sulfaphenazole, 200 µM troleandomycin, 500 µM 1-ABT
T1 sequence (P00186 2-513): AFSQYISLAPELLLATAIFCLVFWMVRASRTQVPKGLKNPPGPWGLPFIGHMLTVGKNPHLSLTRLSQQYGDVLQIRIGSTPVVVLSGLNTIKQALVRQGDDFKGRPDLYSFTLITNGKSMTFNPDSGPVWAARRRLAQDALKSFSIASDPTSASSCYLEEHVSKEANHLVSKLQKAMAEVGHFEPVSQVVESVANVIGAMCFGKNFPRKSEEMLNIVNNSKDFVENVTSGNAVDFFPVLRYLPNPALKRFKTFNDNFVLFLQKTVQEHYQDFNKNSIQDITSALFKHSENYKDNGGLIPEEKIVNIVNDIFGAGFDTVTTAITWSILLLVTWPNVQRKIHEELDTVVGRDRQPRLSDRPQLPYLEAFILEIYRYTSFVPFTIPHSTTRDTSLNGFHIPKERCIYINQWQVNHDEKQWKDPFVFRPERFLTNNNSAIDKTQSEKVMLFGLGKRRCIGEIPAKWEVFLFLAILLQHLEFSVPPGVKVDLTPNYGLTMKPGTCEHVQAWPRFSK

[17] = biological target: T2, CYP1A (NCMN O-demethylation) (Mus musculus, UniProt P00186); assay: as above; conditions: mouse, pH 7.4
T2 sequence (P00186 2-513): T1 sequence (P00186 2-513)

[18] = biological target: T3, CYP1A (NCMN O-demethylation) (Canis lupus familiaris, UniProt P56592); assay: Inhibition of NCMN-O-demethylation by CYP inhibitors in beagle dog liver microsomes; conditions: beagle, dog, pH 7.4
T3 sequence (P56592 2-512): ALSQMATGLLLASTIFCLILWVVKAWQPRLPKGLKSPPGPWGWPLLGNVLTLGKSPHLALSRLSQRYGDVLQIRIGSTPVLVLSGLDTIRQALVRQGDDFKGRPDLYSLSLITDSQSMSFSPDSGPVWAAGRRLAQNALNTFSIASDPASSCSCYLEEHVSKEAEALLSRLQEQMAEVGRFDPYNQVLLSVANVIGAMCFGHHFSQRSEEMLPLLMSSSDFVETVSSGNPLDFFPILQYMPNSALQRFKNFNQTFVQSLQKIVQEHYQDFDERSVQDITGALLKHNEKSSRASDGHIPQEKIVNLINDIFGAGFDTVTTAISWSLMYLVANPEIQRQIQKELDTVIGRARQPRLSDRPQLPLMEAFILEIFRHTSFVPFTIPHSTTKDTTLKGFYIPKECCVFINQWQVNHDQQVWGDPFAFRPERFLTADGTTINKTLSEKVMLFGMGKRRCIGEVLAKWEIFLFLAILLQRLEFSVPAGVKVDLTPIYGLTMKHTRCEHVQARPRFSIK

[19] = biological target: T4, CYP1A in beagle dog liver microsomes (DLM) (Canis lupus familiaris, UniProt P56592); assay: as above; conditions: DLM; 10 µM NCMN; 100 µM furafylline, 10 µM sulfaphenazole, 200 µM troleandomycin, 500 µM 1-ABT
T4 sequence (P56592 2-512): T3 sequence (P56592 2-512)

Question: With `COc1ccc2c3c(cccc13)C(=O)N(CCCC(=O)O)C2=O` [NCMN, N-(3-carboxypropyl)-4-methoxy-1,8-naphthalimide] as the molecule, how does the “Km1 of NCMN-O-demethylation” value [1] read?
Answer: 198.70 ± 39.66 µM

Question: What about the “Km2 of NCMN-O-demethylation” value [1] of the same molecule?
Answer: 0.18 ± 0.09 µM

Question: And the “Vm1 of NCMN-O-demethylation” value [1]?
Answer: 8.43 ± 0.91 nmol/min/mg

Question: And the “Vm2 of NCMN-O-demethylation” value [1]?
Answer: 0.28 ± 0.08 nmol/min/mg

Question: And the Km at 30 min [2]?
Answer: 22.8 ± 1.22 µM

Question: What about the “Vm1 (Vmax) of NCMN-O-demethylation” value [3] of the same molecule?
Answer: 33.17 ± 0.42 nmol/min/mg

Question: What about the “Km1 of NCMN-O-demethylation” value [4] of the same molecule?
Answer: 1134.00 µM and 1134.00 ± 482.10 µM

Question: What about the “Km2 of NCMN-O-demethylation” value [4] of the same molecule?
Answer: 5.66 ± 0.80 µM

Question: And the “Vm1 of NCMN-O-demethylation” value [4]?
Answer: 78.42 ± 31.17 nmol/min/mg

Question: And the “Vm2 of NCMN-O-demethylation” value [4]?
Answer: 5.71 ± 0.45 nmol/min/mg

Question: And the “Vm1 (Vmax) of NCMN-O-demethylation” value [5]?
Answer: 13.53 ± 0.34 nmol/min/mg

Question: What about the Km at 30 min [6] of the same molecule?
Answer: 61.8 ± 3.52 µM

Question: And the “Km1 of NCMN-O-demethylation” value [7]?
Answer: 242.80 ± 111.80 µM

Question: And the “Km2 of NCMN-O-demethylation” value [7]?
Answer: 5.70 ± 3.27 µM

Question: And the “Vm1 of NCMN-O-demethylation” value [7]?
Answer: 28.22 ± 5.82 nmol/min/mg

Question: What about the “Vm2 of NCMN-O-demethylation” value [7] of the same molecule?
Answer: 3.35 ± 1.20 nmol/min/mg

Question: And the Km at 30 min [8]?
Answer: 9.54 ± 0.24 µM

Question: And the “Vm1 (Vmax) of NCMN-O-demethylation” value [9]?
Answer: 25.61 ± 0.15 nmol/min/mg

Question: Which “Inhibition of the formation of NCHN” value [10] does the source give for `Cc1nc2c([nH]1)c(=O)n(C)c(=O)n2Cc1ccco1` [furafylline] here?
Answer: lower inhibitory effects

Question: And the “Inhibition of the formation of NCHN” value [12]?
Answer: near completely

Question: And the “Inhibition of the formation of NCHN” value [15]?
Answer: lower inhibitory effects

Question: And the “Inhibition of the formation of NCHN” value [16]?
Answer: near completely

Question: What about the IC50 [17] of the same molecule?
Answer: 5.73 µM

Question: What about the IC50 [18] of the same molecule?
Answer: 26.8 µM

Question: And the “Inhibition of the formation of NCHN” value [19]?
Answer: lower inhibitory effects
